Experimental data from ChEMBL document CHEMBL2401677, “2-Aminothiazole based P2Y(1) antagonists as novel antiplatelet agents” (Bioorg Med Chem Lett, 2013).

How the values were obtained:
[1] = Antiplatelet activity in human platelet rich plasma assessed as inhibition of ADP-induced platelet aggregation at 10 uM relative to control; format: functional
P2Y purinoceptor 1 = P2Y purinoceptor 1 (Homo sapiens, UniProt P47900); assay: Displacement of [beta-33P]-2MeS-ADP from human P2Y1 receptor expressed in HEK293 cells after 1 hr by scintillation counting analysis; format: cell-based
Sequence of P2Y purinoceptor 1 (P47900 whole entry): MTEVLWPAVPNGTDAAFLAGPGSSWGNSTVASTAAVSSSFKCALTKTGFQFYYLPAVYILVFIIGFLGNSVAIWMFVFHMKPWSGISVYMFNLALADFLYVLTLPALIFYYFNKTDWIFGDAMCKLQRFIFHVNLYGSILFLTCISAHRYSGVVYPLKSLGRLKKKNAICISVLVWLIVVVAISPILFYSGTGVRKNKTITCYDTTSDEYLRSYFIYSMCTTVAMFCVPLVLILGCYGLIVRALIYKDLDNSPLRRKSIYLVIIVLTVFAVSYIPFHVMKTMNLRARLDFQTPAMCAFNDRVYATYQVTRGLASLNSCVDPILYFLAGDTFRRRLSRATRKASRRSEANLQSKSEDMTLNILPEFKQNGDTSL

[2] = Antiplatelet activity in human platelet rich plasma assessed as inhibition of ADP-induced platelet aggregation; format: functional
[3] = Protein binding in human serum; format: ADME, cell-free; settings: read-out: PB
[4] = Clearance in rat at 5 mg/kg, iv; format: ADME, organism-based; set-up: dose 5 mg/kg, route intravenous; settings: in vivo
[5] = Oral bioavailability in rat; format: ADME, organism-based; settings: in vivo

SMILES	inhibition at 10 µM [1] [%]	Ki (P2Y purinoceptor 1) [µM]	IC50 [2] [µM]	fraction unbound [3]	clearance [4] [L/h/kg]	bioavailability [5] [%]
CC(C)(C)c1ccccc1Oc1ncccc1Nc1ncc(-c2ccccc2)s1	87					
CCc1nc(Nc2cccnc2Oc2ccccc2C(C)(C)C)sc1-c1ccccc1	78	0.012				
CC(C)(C)c1ccccc1Oc1ncccc1Nc1nc(C(C)(C)C)c(-c2ccccc2)s1	86	0.031				
CC(C)(C)c1ccccc1Oc1ncccc1Nc1nc(C(F)(F)F)c(-c2ccccc2)s1	61	0.007	12			
CC(C)(C)c1ccccc1Oc1ncccc1Nc1nc(C(C)(C)CC(=O)O)c(-c2ccccc2)s1	89	0.207				
CN(C)C(=O)c1nc(Nc2cccnc2Oc2ccccc2C(C)(C)C)sc1-c1ccccc1	100	0.186				
Cc1sc(Nc2cccnc2Oc2ccccc2C(C)(C)C)nc1C(F)(F)F	96	0.011				
CCOC(=O)c1sc(Nc2cccnc2Oc2ccccc2C(C)(C)C)nc1C(F)(F)F	50	0.005				
CC(C)(C)c1ccccc1Oc1ncccc1Nc1nc(C(F)(F)F)c(C#N)s1	101	0.021				
Cc1noc(-c2sc(Nc3cccnc3Oc3ccccc3C(C)(C)C)nc2C(F)(F)F)n1	56	0.006				
CC(C)(C)c1ccccc1Oc1ncccc1Nc1nc(C(F)(F)F)c(C(N)=O)s1		4.85				
Cc1ccccc1-c1sc(Nc2cccnc2Oc2ccccc2C(C)(C)C)nc1C(F)(F)F	54	0.011				
Cc1ccc(-c2sc(Nc3cccnc3Oc3ccccc3C(C)(C)C)nc2C(F)(F)F)cc1	32	0.008				
CC(C)(C)c1ccccc1Oc1ncccc1Nc1nc(C(F)(F)F)c(-c2ccccc2F)s1	41	0.007				
COc1cccc(-c2sc(Nc3cccnc3Oc3ccccc3C(C)(C)C)nc2C(F)(F)F)c1	41	0.008				
COc1ccc(-c2sc(Nc3cccnc3Oc3ccccc3C(C)(C)C)nc2C(F)(F)F)cc1	30	0.008				
CC(C)(C)c1ccccc1Oc1ncccc1Nc1nc(C(F)(F)F)c(-c2ccc(OC(F)(F)F)cc2)s1	85	0.012				
CC(C)(C)c1ccccc1Oc1ncccc1Nc1nc(C(F)(F)F)c(-c2ccc(C#N)cc2)s1	79	0.013				
CC(C)(C)c1ccccc1Oc1ncccc1Nc1nc(C(F)(F)F)c(-c2ccccc2O)s1	99	0.435				
CC(C)(C)c1ccccc1Oc1ncccc1Nc1nc(C(F)(F)F)c(-c2cccc(O)c2)s1	98	0.195				
CN(C)CC(C)(C)COc1cccc(-c2sc(Nc3cccnc3Oc3ccccc3C(C)(C)C)nc2C(F)(F)F)c1	17	0.012	5.2	0.001	0.402	27
